According to patent publication US20210308089A1, “METHODS OF TREATING AND/OR PREVENTING VIRAL INFECTIONS AND/OR DISEASES CAUSED BY VIRUSES IN A SUBJECT IN NEED THEREOF” (priority 2020, published 2021):

Test system: patients of the REDUCE-IT and earlier EPA placebo-controlled trials
Experiment: Example 3: adverse events by risk ratio, icosapent ethyl vs placebo (candidate categories; infectious disease terms of interest)
Conditions: ISS

**Q.** Which results are given for `CC/C=C\C/C=C\C/C=C\C/C=C\C/C=C\CCCC(=O)OCC` [icosapent ethyl, eicosapentaenoic acid ethyl ester]?
**A.** AR: Cholesterol Increased (AE table): 0.9%; AR: Chorea, Related (AE table): 0.7%; AR: Constipation, Related (AE table): 0.5%; AR: Diarrhea, Any Severity (AE table): 9.8%; AR: Diarrhea, Mild Severity (AE table): 7.4%; AR: Diarrhea, Related (AE table): 8.4%; AR: Flatulence, Any Severity (AE table): 1.1%; AR: Flatulence, Mild Severity (AE table): 0.9%; AR: Flatulence, Related (AE table): 1.1%; AR: Frequent Bowel Movements, Any Severity (AE table): 0.2%; AR: Frequent Bowel Movements, Mild Severity (AE table): 0.2%; AR: Frequent Bowel Movements, Related (AE table): 0.2%; AR: Hot Flush (AE table): 0.6%; AR: Huntington's Chorea, Any Severity (AE table): 1.0%; AR: Huntington's Chorea, Mild Severity (AE table): 0.8%; AR: Menorrhagia (AE table): 0.4%; AR: Muscle spasms, Related (AE table): 0.2%; AR: Nasopharyngitis, Any Severity (AE table): 4.3%; AR: Nasopharyngitis, Mild Severity (AE table): 3.3%; AR: Urine Protein Present (AE table): 0.1%; AR: Weight loss, Related (AE table): 0.3%; ARR: Cholesterol Increased (AE table): −1.4%; ARR: Chorea, Related (AE table): −0.5%; ARR: Constipation, Related (AE table): −0.8%; ARR: Diarrhea, Any Severity (AE table): −1.6%; ARR: Diarrhea, Mild Severity (AE table): −2.2%; ARR: Diarrhea, Related (AE table): −1.5%; ARR: Flatulence, Any Severity (AE table): −0.8%; ARR: Flatulence, Mild Severity (AE table): −0.8%; ARR: Flatulence, Related (AE table): −0.8%; ARR: Frequent Bowel Movements, Any Severity (AE table): −0.6%; ARR: Frequent Bowel Movements, Mild Severity (AE table): −0.4%; ARR: Frequent Bowel Movements, Related (AE table): −0.6%; ARR: Hot Flush (AE table): −0.3%; ARR: Huntington's Chorea, Any Severity (AE table): −1.3%; ARR: Huntington's Chorea, Mild Severity (AE table): −0.9%; ARR: Menorrhagia (AE table): −0.6%; ARR: Muscle spasms, Related (AE table): −0.0%; ARR: Nasopharyngitis, Any Severity (AE table): −2.3%; ARR: Nasopharyngitis, Mild Severity (AE table): −2.3%; ARR: Urine Protein Present (AE table): −0.2%; ARR: Weight loss, Related (AE table): −0.4%; NNT: Cholesterol Increased (AE table): 69; NNT: Chorea, Related (AE table): 187; NNT: Constipation, Related (AE table): 122; NNT: Diarrhea, Any Severity (AE table): 61; NNT: Diarrhea, Mild Severity (AE table): 45; NNT: Diarrhea, Related (AE table): 65; NNT: Flatulence, Any Severity (AE table): 121; NNT: Flatulence, Mild Severity (AE table): 129; NNT: Flatulence, Related (AE table): 121; NNT: Frequent Bowel Movements, Any Severity (AE table): 173; NNT: Frequent Bowel Movements, Mild Severity (AE table): 259; NNT: Frequent Bowel Movements, Related (AE table): 173; NNT: Hot Flush (AE table): 292; NNT: Huntington's Chorea, Any Severity (AE table): 77; NNT: Huntington's Chorea, Mild Severity (AE table): 109; NNT: Menorrhagia (AE table): 159; NNT: Muscle spasms, Related (AE table): 2007; NNT: Nasopharyngitis, Any Severity (AE table): 43; NNT: Nasopharyngitis, Mild Severity (AE table): 43; NNT: Urine Protein Present (AE table): 519; NNT: Weight loss, Related (AE table): 230; Risk Ratio (95% CI): Cholesterol Increased (AE table): 0.165 (0.036 to 0.759) 5; Risk Ratio (95% CI): Chorea, Related (AE table): 0.445(0.107 to 1.853) 3; Risk Ratio (95% CI): Constipation, Related (AE table): 0.148 (0.017 to 1.265) 5; Risk Ratio (95% CI): Diarrhea, Any Severity (AE table): 0.847 (0.603 to 1.191) 1; Risk Ratio (95% CI): Diarrhea, Mild Severity (AE table): 0.741 (0.498 to 1.103) 2; Risk Ratio (95% CI): Diarrhea, Related (AE table): 0.834 (0.575 to 1.210) 1; Risk Ratio (95% CI): Flatulence, Any Severity (AE table): 0.463 (0.152 to 1.408) 3; Risk Ratio (95% CI): Flatulence, Mild Severity (AE table): 0.424 (0.125 to 1.440) 3; Risk Ratio (95% CI): Flatulence, Related (AE table): 0.463 (0.152 to 1.408) 3; Risk Ratio (95% CI): Frequent Bowel Movements, Any Severity (AE table): [0 drug vs 3 PBO]; Risk Ratio (95% CI): Frequent Bowel Movements, Mild Severity (AE table): [0 drug vs 2 PBO]; Risk Ratio (95% CI): Frequent Bowel Movements, Related (AE table): [0 drug vs 3 PBO]; Risk Ratio (95% CI): Hot Flush (AE table): 0.556 (0.125 to 2.474) 3; Risk Ratio (95% CI): Huntington's Chorea, Any Severity (AE table): 0.247 (0.067 to 0.908) 4; Risk Ratio (95% CI): Huntington's Chorea, Mild Severity (AE table): 0.318 (0.083 to 1.223) 4; Risk Ratio (95% CI): Menorrhagia (AE table): 0.185 (0.021 to 1.653) 5; Risk Ratio (95% CI): Muscle spasms, Related (AE table): 0.741 (0.046 to 11.826) 2; Risk Ratio (95% CI): Nasopharyngitis, Any Severity (AE table): 0.588 (0.344 to 1.004) 3; Risk Ratio (95% CI): Nasopharyngitis, Mild Severity (AE table): 0.494 (0.265 to 0.921) 3; Risk Ratio (95% CI): Urine Protein Present (AE table): [0 drug vs 1 PBO]; Risk Ratio (95% CI): Weight loss, Related (AE table): 0.247 (0.026 to 2.369) 4; ARR (Chorea, Related): −0.5%; NNT (Chorea, Related): 187; Risk Ratio (95% CI) (Chorea, Related): 0.445 (0.107 to 1.853) 3; ARR (Constipation, Related): −0.8%; NNT (Constipation, Related): 122; Risk Ratio (95% CI) (Constipation, Related): 0.148 (0.017 to 1.265) 5; ARR (Cough): 0.9%; NNT (Cough): −112; Risk Ratio (95% CI) (Cough): 1.928 (0.692 to 5.373) −3; ARR (Diarrhea, Any Severity): −1.6%; NNT (Diarrhea, Any Severity): 61; Risk Ratio (95% CI) (Diarrhea, Any Severity): 0.847 (0.603 to 1.191) 1; ARR (Diarrhea, Mild Severity): −2.2%; NNT (Diarrhea, Mild Severity): 45; Risk Ratio (95% CI) (Diarrhea, Mild Severity): 0.741 (0.498 to 1.103) 2; ARR (Diarrhea, Related): −1.5%; NNT (Diarrhea, Related): 65; Risk Ratio (95% CI) (Diarrhea, Related): 0.834 (0.575 to 1.210) 1; ARR (Flatulence, Any Severity): −0.8%; NNT (Flatulence, Any Severity): 121; Risk Ratio (95% CI) (Flatulence, Any Severity): 0.463 (0.152 to 1.408) 3; ARR (Flatulence, Mild Severity): −0.8%
